The values that follow come from patent US11376278B2, “Compositions and methods for treating disease” (Sulfilatec, Inc., priority 2016, dated 2022).

For series [1], the system named is acute heart failure patients. As to conditions: acute heart failure patients in Japan; cited from earlier work.
Series [2] deals with salt sensitive Dahl rats on high salt diet. Kind of series: Survival of salt sensitive Dahl rats on high salt (8% NaCl) diet, 10 week study. It counts as in vivo, rat. The source says: Control rats received AIN76A without supplemental chloride or bromide. 9 rats per study arm.
Mortality events were counted over the 10 week study. […] Thus, administration of Br^− and together increased the survival probability of 52% as compared to administration of alone (FIG. 1).

Series [3] in a line: Serum Br- concentration in spontaneously hypertensive rats (SHR) after 10 weeks on diet. It counts as in vivo, rat. As to conditions: AIN-76A+Br diet.
Description: (A) Serum Br^− concentrations from rats fed a daily diet over 10 weeks of “AIN-76A”, “AIN-76A+8% NaCl”, “AIN-76A+Br”, or “AIN-76A+8% NaCl+Br”. Salt sensitive Dahl rats as well as Spontaneously Hypertensive Rats (SHR) were used in these studies. The two diets containing 8% NaCl (eg. “AIN-76A+8% NaCl” and “AIN-76A+8% NaCl+Br”) were fed to Dahl rats while the remaining two diets (eg. “AIN-76A” and “AIN-76A+Br”) were fed to SHR, as indicated in panel A. Serum Br^− measurements were determined using mass spectrometry.
Rats were administered 10 mg of NaBr per kg of AIN76A diet for 10 weeks. At the end of the study, serum Br^− levels in Br-treated rats were compared to serum Br^− levels in SHR on AIN76A as well as Wistar rats on AIN76A.
Series [4] concerns spontaneously hypertensive rat (SHR) model of cardiovascular disease. As to the kind of experiment: 10 week repeat dosing study in SHR disease model (organ weights, survival, urinary protein, safety). It is filed as in vivo. As to the method:
(A-B) Heart and kidney weights from 10 week repeat dosing study in SHR model. Br^− administered daily via diet, with AIN-76a as base diet. WKY served as genetic control. Both kidneys per animal weighed together. […] (C-D) Heart and kidney weights from panels A-B normalized to body weight. […] (E) Rats were administered a diet of AIN76A with or without 10 mg NaBr per kg feed (“SHR” and “SHR+Br” study arms, respectively). Survival probability was calculated between SHR rats receiving dietary Br^− and SHR rats receiving AIN76A control diet over a 10 week study period. As a second control, Wistar Kyoto (WKY) rats were fed AIN76A control diet over the same period. 8 rats per study arm.
Eight SHR animals received AIN76A diet for 10 weeks while 8 SHR animals received AIN76A supplemented with 10 mg NaBr/kg diet.

In series [5] the test system is cardiac fibrosis in SHR. As to the kind of experiment: Cardiac interstitial fibrosis, Masson's Trichrome staining, SHR. It counts as in vivo, rat. The settings on record: male SHR, 10 mg NaBr per kg AIN-76a, oral daily, 10 weeks, p<0.0001. As to the method:
(§1) AIN-76A was base diet for all animals. […] Fibrosis determined from 5 μm tissue sections stained with Masson's Trichrome. […] Approximately 25-30 images were collected and processed per animal.
Following conclusion of the in vivo study, rat hearts were formalin-fixed, paraffin-embedded, and 5 μm-thick sections were obtained for histochemical analysis.

Series [6] relates to cardiac fibrosis in salt sensitive Dahl rats on a high salt diet. Kind of series: Cardiac interstitial fibrosis, Masson's Trichrome staining, Dahl rats on high salt diet. The settings on record: 300 mg NaBr per kg AIN-76a+8% NaCl, 10 weeks, p<0.0001. It counts as in vivo, rat. As to the method: as §1
In series [7] the test system is 10 week-old male SHR. As to the kind of experiment: Blood pressure and heart rate (tail cuff) one day after single IP administration in SHR. It is filed as in vivo, rat. As to conditions: single IP 154.5 μg NaBr per kg. As to the method: (A) In 10 week-old male SHR, single administration of Br^− reduced systolic and diastolic blood pressures compared to saline control. […] (C-D) Measured values for systolic (C) and diastolic (D) blood pressure, denoting statistical significance where achieved. 154.5 μg NaBr per kg rat body weight injected via IP. All “Post Administration” data collected one day following administration. n=8 in Br Treatment group, =5 in saline control. BP & HR measured via tail cuff. *:p<0.05, t test.
The inventors next asked whether Br^− exerts any short-term activity in addition to the improved cardiac fibrosis noted after 10 weeks administration. Returning to the SHR preclinical model of disease, the inventors specifically asked whether Br^− administration modulates certain biomarkers associated with cardiovascular disease at one day post-administration. To this end, Br^− was administered to 8 SHR via intraperitoneal (IP) injection with an estimated 0.154 μg NaBr per gram body weight. For control, 8 SHR were administered saline via IP injection containing an estimated 4 ng NaBr per gram body weight. […] Without wishing to be bound by theory, embodiments as described herein can therapeutically improve certain hemodynamic and circulating biomarkers that are associated with progression of cardiovascular and kidney diseases. Moreover, Br^− achieves its cardiovascular and renal therapeutic activities in part via modulation of natriuretic peptide signaling.

Series [8] deals with dogs (epilepsy). The settings on record: dogs that do not respond to an initial course of Br- treatment; cited from earlier work.
Series [9] has as its system humans (sedative, anti-epilepsy effect). As to conditions: in vivo; cited from earlier work.
Series [10] can be described thus: Serum Br- concentration in Dahl rats after 10 weeks on diet (mass spectrometry). As to conditions: AIN-76A+8% NaCl+Br diet.
Description: (A) Serum Br^− concentrations from rats fed a daily diet over 10 weeks of “AIN-76A”, “AIN-76A+8% NaCl”, “AIN-76A+Br”, or “AIN-76A+8% NaCl+Br”. […] The two diets containing 8% NaCl (eg. “AIN-76A+8% NaCl” and “AIN-76A+8% NaCl+Br”) were fed to Dahl rats while the remaining two diets (eg. “AIN-76A” and “AIN-76A+Br”) were fed to SHR, as indicated in panel A. Serum Br^− measurements were determined using mass spectrometry.
Series [11] deals with patients with acute decompensated heart failure. As to conditions: cited from earlier work.
The mark [12] stands for this setting: one day post administration, vs saline.

Several values for one entry are separate records, joined by “and”; a condition that tells them apart may be missing. Equal values may be shown once. Entries after “also recorded” stand apart in the source; their conditions may differ.

Regarding `CC[C@H](C)[C@@H]1NC(=O)[C@H](CCCNC(=N)N)NC(=O)[C@H](CC(=O)O)NC(=O)[C@H](CCSC)NC(=O)[C@H](CCCNC(=N)N)NC(=O)CNC(=O)CNC(=O)[C@H](Cc2ccccc2)NC(=O)[C@@H](NC(=O)[C@H](CO)NC(=O)[C@H](CO)NC(=O)[C@H](CCCNC(=N)N)NC(=O)[C@H](CCCNC(=N)N)NC(=O)[C@H](CC(C)C)NC(=O)[C@@H](N)CO)CSSC[C@@H](C(=O)N[C@@H](CC(N)=O)C(=O)N[C@@H](CO)C(=O)N[C@@H](Cc2ccccc2)C(=O)N[C@@H](CCCNC(=N)N)C(=O)N[C@@H](Cc2ccc(O)cc2)C(=O)O)NC(=O)CNC(=O)[C@H](CC(C)C)NC(=O)CNC(=O)[C@H](CO)NC(=O)[C@H](CCC(N)=O)NC(=O)[C@H](C)NC(=O)CNC1=O` [carperitide], the in-hospital mortality entry in series [1] is “increased in-hospital mortality”.

As for `[Br-].[Na+]` [Br^−, sodium bromide], the “increase of survival probability compared to high salt alone” value in [2] (Dahl rats, 8% NaCl + 300 mg NaBr per kg food vs 8% NaCl, 10 weeks) was 52%. In [2] (Dahl rats, AIN76A with 8% NaCl and 300 mg NaBr per kg food, 10 week study), the survival probability is on record as 67%. The “survival probability vs High Salt alone (log rank test)” value in series [2] (High Salt+Br arm (AIN76A+8% NaCl+300 mg NaBr per kg feed), 9 rats per arm, p<0.001) is recorded as “Significantly greater survival probability”. Moreover, the “serum Br- concentration, toxicity assessment” value in series [3] was “non-toxic”. The “survival probability among groups” value in series [4] (SHR+Br vs SHR and WKY, 10 week study, 8 rats per arm) is “no statistical difference”. Besides, the “absolute heart weight vs SHR on AIN-76a alone” value in series [4] (SHR, 10 mg NaBr/kg diet daily, 10 weeks, p<0.05) is on record as “significantly reduced; also recorded: Statistically significant reduction”. In [4] (SHR, 10 mg NaBr/kg diet, through the end of the 10 week study), the urinary protein levels entry is “a difference that persisted”. For the same molecule, in [4] (SHR, after one day on study diet (10 mg NaBr/kg)), the “urinary microprotein/creatinine ratio (urinary protein levels)” value is “significantly lower; also recorded: significantly reduced”. Also, the “cardiac fibrosis (Masson's Trichrome blue staining)” value in series [5] is “dramatic reduction; also recorded: less cardiac fibrosis”. In addition, in [6], the “cardiac fibrosis (Masson's Trichrome)” value is given as “less cardiac fibrosis”. For the same molecule, in series [7] (setting [12]), the diastolic blood pressure entry is “reduced” and the systolic blood pressure result was “statistically significant reductions; also recorded: reduced”. The heart rate entry in series [7] (one day post, not statistically significant (p=0.052)) is listed as “possible reduction”. In addition, the “therapeutic serum Br- for sedative effect” value in series [8] is on record as “above 25 mM”. Besides, the “circulating/serum Br- levels at which the anti-epilepsy effect occurs” value in [9] is > 6 mM and 6 to 12 mM. Further, the “serum Br- concentration, toxicity assessment” value in [10] is “non-toxic”.

As for nesiritide, in series [11], the mortality entry is on record as “increased mortality” and the renal function entry was “worsening renal function”.
